Measured values reported in paper PMC8725837, “2-Arylquinolines as novel anticancer agents with dual EGFR/FAK kinase inhibitory activity: synthesis, biological evaluation, and molecular modelling insights” (Journal of Enzyme Inhibition and Medicinal Chemistry, 2021).

Tests used:
[1] = tested on: DLD-1 colorectal cancer cell line; assay: MTT antiproliferative assay, DLD-1; conditions: for GI% DLD1: 10 µM, 24 h, MTT; for IC50: Homo sapiens, DLD-1, 24 h, read-out: IC50 DLD1 (half maximal growth inhibitory concentration)
IGF-1R = target: T1, IGF-1R (Homo sapiens, UniProt P08069); assay: Z`-LYTE kinase profiling, IGF-1R; assay type: biochemical
T1 construct: purchased Invitrogen/Life Technologies
T1 sequence (P08069 31-1367): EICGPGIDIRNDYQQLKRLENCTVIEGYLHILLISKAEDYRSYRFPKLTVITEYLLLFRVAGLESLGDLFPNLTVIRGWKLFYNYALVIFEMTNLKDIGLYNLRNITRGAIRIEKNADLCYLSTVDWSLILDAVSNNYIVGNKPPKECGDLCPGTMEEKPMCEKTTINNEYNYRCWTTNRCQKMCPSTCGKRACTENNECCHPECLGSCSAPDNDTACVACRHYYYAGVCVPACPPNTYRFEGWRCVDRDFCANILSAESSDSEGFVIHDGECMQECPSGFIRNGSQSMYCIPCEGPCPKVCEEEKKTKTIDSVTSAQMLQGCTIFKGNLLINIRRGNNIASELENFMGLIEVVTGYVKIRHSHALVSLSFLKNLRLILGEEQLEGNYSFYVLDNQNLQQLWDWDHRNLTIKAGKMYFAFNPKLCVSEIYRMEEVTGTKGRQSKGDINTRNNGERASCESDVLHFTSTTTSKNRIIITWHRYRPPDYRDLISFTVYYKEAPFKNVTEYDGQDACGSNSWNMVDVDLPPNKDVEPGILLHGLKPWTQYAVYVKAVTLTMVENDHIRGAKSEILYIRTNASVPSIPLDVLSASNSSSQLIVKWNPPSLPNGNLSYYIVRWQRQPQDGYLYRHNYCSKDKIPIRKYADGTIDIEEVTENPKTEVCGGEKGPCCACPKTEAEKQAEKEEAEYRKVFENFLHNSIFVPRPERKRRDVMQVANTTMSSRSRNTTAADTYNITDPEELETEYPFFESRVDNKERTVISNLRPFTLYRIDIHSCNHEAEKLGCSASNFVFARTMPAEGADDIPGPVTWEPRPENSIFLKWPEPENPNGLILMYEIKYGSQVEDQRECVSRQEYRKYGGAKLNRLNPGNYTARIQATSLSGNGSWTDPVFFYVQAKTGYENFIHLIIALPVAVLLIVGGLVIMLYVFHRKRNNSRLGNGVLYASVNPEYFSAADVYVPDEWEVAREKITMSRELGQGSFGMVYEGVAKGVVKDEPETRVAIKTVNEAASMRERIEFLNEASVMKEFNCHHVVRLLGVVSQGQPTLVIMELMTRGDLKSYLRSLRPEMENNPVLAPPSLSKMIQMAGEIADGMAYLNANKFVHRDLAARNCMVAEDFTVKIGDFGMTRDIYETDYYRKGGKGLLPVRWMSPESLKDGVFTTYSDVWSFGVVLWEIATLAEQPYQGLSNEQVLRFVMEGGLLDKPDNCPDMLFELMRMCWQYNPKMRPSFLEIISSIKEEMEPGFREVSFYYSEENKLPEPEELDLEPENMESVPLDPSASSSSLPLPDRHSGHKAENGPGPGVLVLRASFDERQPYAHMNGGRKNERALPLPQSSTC

[2] = tested on: DLD-1 colorectal cancer cell line; assay: Annexin V-FITC/propidium iodide apoptosis assay (AV/PI); assay type: cell-based; conditions: 3 µM, 24 h; control 7%
Experimental: Also, compounds 6f, 6i, 16d, and 20f exerted potential apoptotic effect elevating the total percentage of apoptotic cells to 84.33, 71.66, 51.66, and 80.66%, respectively.
Flow cytometric analysis was conducted using FACS Calibur flow cytometer (BD Biosciences, San Jose, CA, USA).

HER-2 = target: T2, HER-2 (Homo sapiens, UniProt P04626); assay: Z`-LYTE kinase profiling, HER-2; assay type: biochemical
T2 construct: purchased Invitrogen/Life Technologies
T2 sequence (P04626 23-1255): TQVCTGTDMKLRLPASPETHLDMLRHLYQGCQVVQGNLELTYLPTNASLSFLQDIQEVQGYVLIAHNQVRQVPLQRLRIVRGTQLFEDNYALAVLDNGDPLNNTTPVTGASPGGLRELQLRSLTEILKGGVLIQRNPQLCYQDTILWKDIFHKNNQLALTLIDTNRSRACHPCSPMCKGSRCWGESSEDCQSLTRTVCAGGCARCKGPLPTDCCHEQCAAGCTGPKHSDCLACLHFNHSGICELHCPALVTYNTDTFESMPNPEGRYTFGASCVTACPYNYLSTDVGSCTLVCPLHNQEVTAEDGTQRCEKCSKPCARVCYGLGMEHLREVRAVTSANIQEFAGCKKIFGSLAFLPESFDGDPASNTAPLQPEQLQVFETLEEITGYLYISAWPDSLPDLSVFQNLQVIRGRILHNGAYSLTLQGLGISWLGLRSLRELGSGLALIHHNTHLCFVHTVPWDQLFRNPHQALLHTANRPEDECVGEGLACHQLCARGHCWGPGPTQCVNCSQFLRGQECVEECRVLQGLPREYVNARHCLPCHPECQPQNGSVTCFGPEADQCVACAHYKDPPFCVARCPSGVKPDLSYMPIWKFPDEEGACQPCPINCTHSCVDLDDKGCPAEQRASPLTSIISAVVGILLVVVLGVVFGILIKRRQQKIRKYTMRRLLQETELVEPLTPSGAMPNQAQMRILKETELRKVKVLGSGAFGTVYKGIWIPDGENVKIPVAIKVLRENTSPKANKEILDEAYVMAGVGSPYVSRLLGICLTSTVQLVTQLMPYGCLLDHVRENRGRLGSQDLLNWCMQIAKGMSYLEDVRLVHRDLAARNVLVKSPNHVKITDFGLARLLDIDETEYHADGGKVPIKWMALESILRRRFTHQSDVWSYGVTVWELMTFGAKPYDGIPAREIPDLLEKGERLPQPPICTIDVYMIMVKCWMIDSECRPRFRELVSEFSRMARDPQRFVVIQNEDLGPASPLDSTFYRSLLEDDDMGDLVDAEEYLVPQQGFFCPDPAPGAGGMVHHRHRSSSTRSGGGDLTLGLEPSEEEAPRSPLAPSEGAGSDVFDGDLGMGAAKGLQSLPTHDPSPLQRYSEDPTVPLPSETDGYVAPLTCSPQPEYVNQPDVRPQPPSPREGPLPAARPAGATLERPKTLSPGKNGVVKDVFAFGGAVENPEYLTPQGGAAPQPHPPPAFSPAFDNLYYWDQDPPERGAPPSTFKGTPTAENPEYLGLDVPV

BTK = target: T3, BTK (Homo sapiens, UniProt Q06187); assay: Z`-LYTE kinase profiling, BTK; assay type: biochemical
T3 construct: purchased Invitrogen/Life Technologies

[3] = tested on: MDMBA-231 breast cancer cell line; assay: MTT antiproliferative assay, MDMBA-231; assay type: cell-based; conditions: 10 µM, 24 h
Experimental: (§1) At least, three independent experiments were performed.

EGFR = EGFR (Homo sapiens, UniProt P00533); assay: Z`-LYTE kinase inhibitory assay, EGFR
Chain of EGFR (P00533 25-1210): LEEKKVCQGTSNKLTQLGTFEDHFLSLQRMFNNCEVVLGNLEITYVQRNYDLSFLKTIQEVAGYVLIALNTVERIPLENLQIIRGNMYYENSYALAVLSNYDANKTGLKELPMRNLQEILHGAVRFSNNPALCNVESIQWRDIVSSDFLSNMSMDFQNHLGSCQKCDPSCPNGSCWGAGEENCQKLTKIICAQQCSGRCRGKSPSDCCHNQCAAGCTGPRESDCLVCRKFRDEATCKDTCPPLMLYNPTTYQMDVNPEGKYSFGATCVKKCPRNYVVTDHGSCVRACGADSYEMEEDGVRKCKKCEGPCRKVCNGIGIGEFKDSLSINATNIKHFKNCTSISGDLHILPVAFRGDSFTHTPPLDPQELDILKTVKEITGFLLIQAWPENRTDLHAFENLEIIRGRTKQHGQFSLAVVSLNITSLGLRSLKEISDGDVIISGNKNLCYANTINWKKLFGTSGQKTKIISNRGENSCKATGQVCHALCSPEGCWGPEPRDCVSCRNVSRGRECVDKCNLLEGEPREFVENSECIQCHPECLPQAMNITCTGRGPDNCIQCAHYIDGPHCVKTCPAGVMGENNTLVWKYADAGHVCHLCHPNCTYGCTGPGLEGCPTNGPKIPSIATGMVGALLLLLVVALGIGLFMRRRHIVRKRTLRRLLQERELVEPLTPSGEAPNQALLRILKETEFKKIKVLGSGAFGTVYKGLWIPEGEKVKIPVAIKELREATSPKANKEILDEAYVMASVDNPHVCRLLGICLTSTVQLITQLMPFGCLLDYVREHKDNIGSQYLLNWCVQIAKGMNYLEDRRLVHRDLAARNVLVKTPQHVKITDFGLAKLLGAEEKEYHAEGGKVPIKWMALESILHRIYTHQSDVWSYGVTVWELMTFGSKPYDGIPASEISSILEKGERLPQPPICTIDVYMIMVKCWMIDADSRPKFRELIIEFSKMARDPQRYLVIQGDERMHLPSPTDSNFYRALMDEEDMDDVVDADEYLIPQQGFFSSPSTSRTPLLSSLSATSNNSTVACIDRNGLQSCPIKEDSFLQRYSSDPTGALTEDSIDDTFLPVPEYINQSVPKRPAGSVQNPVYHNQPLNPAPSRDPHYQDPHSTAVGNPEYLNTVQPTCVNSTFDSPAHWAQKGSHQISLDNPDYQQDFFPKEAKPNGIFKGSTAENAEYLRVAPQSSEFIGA

FRK = target: T4, FRK (Homo sapiens, UniProt P42685); assay: Z`-LYTE kinase profiling, FRK; assay type: biochemical
T4 construct: purchased Invitrogen/Life Technologies

VEGFR-1 = target: T5, VEGFR-1 (Homo sapiens, UniProt P17948); assay: Z`-LYTE kinase profiling, VEGFR-1; assay type: biochemical
T5 construct: purchased Invitrogen/Life Technologies

recombinant human TOP1 = target: T6, recombinant human TOP1 (Homo sapiens, UniProt P11387); assay: Topoisomerase I-mediated DNA cleavage assay; conditions: tested at 0.1, 1, 10, 100 µM
T6 sequence (P11387 1-765): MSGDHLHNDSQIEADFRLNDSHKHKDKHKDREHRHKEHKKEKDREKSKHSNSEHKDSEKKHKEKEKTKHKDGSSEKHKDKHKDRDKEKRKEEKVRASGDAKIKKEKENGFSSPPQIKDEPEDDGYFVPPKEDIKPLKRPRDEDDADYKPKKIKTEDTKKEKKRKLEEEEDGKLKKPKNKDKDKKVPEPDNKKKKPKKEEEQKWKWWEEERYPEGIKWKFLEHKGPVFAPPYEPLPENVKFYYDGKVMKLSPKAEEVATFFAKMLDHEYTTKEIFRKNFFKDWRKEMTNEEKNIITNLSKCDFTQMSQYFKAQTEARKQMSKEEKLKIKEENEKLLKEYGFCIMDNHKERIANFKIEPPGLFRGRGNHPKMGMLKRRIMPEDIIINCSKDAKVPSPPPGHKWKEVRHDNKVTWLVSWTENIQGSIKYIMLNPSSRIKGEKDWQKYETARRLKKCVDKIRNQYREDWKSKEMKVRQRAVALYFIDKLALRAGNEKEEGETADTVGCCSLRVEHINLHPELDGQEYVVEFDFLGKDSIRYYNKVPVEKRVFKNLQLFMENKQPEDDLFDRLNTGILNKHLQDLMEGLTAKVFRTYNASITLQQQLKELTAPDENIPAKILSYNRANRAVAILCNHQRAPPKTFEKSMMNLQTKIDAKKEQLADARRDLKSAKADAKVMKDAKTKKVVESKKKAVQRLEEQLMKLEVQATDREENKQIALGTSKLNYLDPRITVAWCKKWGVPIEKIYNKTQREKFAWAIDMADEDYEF

c-Src = target: T7, c-Src (Homo sapiens, UniProt P12931); assay: Z`-LYTE kinase profiling, c-Src; assay type: biochemical
T7 construct: purchased Invitrogen/Life Technologies

[4] = tested on: HCT-116 colorectal cancer cell line; assay: MTT antiproliferative assay, HCT-116; conditions: for GI% HCT-116: 10 µM, 24 h, MTT; for IC50: Homo sapiens, HCT-116, 24 h, read-out: IC50 HCT-116 (half maximal growth inhibitory concentration)
Experimental: After the incubation of the tested compounds for 24 h, the percent growth inhibition (GI%) was calculated.
Cells were seeded at 1 × 10^4 cells/well and cultured overnight in a 96-well plate. […] Then, 150 µl DMSO was used to solubilise MTT formazan crystals. Finally, the plates were shaken, and the optical density was determined at 570 nm using ELISA plate reader. At least, three independent experiments were performed. Percentage of growth inhibition was determined as (1-[OD of treated cells/OD of control cells]). […] The IC50 values were calculated using Prism v0.8 software (GraphPad Software Inc., La Jolla, CA).

VEGFR-2 = target: T8, VEGFR-2 (Homo sapiens, UniProt P35968); assay: Z`-LYTE kinase profiling, VEGFR-2; assay type: biochemical
T8 construct: purchased Invitrogen/Life Technologies

FAK = FAK (Homo sapiens, UniProt Q05397); assay: Z`-LYTE kinase inhibitory assay, FAK
Chain of FAK (Q05397 whole entry): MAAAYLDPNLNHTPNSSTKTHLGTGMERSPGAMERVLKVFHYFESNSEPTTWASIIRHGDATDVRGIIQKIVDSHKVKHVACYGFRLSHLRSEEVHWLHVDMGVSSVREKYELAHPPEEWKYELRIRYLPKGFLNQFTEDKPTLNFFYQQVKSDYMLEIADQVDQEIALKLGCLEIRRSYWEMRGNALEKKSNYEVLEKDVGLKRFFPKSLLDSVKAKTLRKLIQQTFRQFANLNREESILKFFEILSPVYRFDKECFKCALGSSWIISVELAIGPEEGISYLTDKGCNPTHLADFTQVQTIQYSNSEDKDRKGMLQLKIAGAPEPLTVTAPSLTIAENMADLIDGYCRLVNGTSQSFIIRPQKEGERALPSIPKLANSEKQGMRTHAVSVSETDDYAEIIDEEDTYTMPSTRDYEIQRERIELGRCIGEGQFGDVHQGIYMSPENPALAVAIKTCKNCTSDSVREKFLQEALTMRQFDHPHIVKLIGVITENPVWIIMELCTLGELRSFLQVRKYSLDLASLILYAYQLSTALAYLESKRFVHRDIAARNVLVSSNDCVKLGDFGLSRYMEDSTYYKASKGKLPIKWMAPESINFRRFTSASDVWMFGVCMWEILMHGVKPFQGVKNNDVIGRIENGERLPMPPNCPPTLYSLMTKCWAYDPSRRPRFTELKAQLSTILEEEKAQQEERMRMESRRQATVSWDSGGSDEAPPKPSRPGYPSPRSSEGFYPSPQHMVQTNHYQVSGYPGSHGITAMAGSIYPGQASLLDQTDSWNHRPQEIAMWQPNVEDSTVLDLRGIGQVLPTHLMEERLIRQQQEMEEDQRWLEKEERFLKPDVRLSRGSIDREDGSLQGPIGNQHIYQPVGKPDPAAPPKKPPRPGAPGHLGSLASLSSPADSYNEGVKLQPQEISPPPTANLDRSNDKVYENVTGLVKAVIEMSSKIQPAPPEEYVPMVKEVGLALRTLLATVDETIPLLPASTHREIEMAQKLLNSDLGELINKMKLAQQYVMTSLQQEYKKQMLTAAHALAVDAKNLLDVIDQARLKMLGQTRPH

[5] = tested on: HeLa cervical cancer cell line; assay: MTT antiproliferative assay, HeLa; assay type: cell-based; conditions: 10 µM, 24 h
Experimental: as §1

[6] = tested on: MCF-7 breast cancer cell line; assay: MTT antiproliferative assay, MCF-7; assay type: cell-based; conditions: 10 µM, 24 h
Experimental: as §1

| IC50 [1] | IC50 (IGF-1R) | IC50 (HER-2) | IC50 (BTK) | IC50 (EGFR) | IC50 (FRK) | IC50 (VEGFR-1) | TOP1 inhibitory activity (semiquantitative score relative to 1 µM CPT) (recombinant human TOP1) | IC50 (c-Src) | IC50 [4] | IC50 (VEGFR-2) | IC50 (FAK) | melting point | SMILES | GI% DLD1 [1] | fold superior activity compared to Gefitinib, DLD-1 ([1]; from IC50 values) | total percentage of AV positive apoptotic DLD-1 cells [2] | GI% MDMBA-231 [3] | GI% HCT-116 [4] | GI% Hela [5] | GI% MCF-7 [6] |
| --- | --- | --- | --- | --- | --- | --- | --- | --- | --- | --- | --- | --- | --- | --- | --- | --- | --- | --- | --- | --- |
| 2250 ± 960 nM | 5350 nM | 639 nM | 8790 nM | 25.4 ± 3.49 nM | 5050 nM | 1730 nM | 0 | 3940 nM | 3090 ± 1050 nM | 1940 nM | 22.7 ± 2.38 nM |  | COc1cc2nc(-c3ccc(C(F)(F)F)cc3)cc(OCCCN3CCN(C)CC3)c2cc1OC [6f, 6,7-dimethoxy-4–(3-(4-methylpiperazin-1-yl)propoxy)-2–(4-(trifluoromethyl)phenyl)quin-oline] | 95.36% | 4 fold | 84.33% | 75.34% | 88.46% | 69.17% | 94.36% |
| 74900 ± 5460 nM | 453 nM | 897 nM | 653 nM | 450.2 ± 4.25 nM | 6530 nM | 2540 nM | 0 | 1450 nM | 9200 ± 2490 nM | 855 nM | 273 ± 2.84 nM | 138 to 140 °C | FC(F)(F)c1ccc(-c2cc(OCCCN3CCOCC3)c3cc4c(cc3n2)OCO4)cc1 [12d, 8-(3-morpholinopropoxy)-6-(4-(trifluoromethyl)phenyl)-[1,3]dioxolo[4,5-g]quinoline] | 22.58% |  |  | 9.36% | 54.37% | 36.67% | 26.54% |
| 8220 ± 1120 nM | 5230 nM | 2020 nM | 4800 nM | 222 ± 8.25 nM | 6150 nM | 1960 nM | 0 | 1350 nM | 6150 ± 1300 nM | 3410 nM | 44.1 ± 3.26 nM | 149 to 151 °C | Clc1ccc(-c2cc(OCCCn3ccnc3)c3cc(Br)ccc3n2)cc1 [16a, 4-(3-(1H-imidazol-1-yl)propoxy)-6-bromo-2-(4-chlorophenyl)quinoline] | 60.08% |  |  | 51.24% | 76.17% | 47.35% | 22.97% |
| 8690 ± 2640 nM | 3490 nM | 2310 nM | 2880 nM | 313 ± 15.3 nM | 3130 nM | 1270 nM | 0 | 1320 nM | 4220 ± 1050 nM | 3230 nM | 50.4 ± 4.81 nM | 137 to 139 °C | Clc1ccc(-c2cc(OCCCN3CCOCC3)c3cc(Br)ccc3n2)cc1 [16b, 4-(3-((6-bromo-2-(4-chlorophenyl)quinolin-4-yl)oxy)propyl)morpholine] | 55.82% |  |  | 45.31% | 87.61% | 35.94% | 19.38% |
| > 100000 nM | 6690 nM | 1610 nM | 5620 nM | 485 ± 11.4 nM | 6670 nM | 2560 nM | + (+: 25–50% 1 µM CPT) | 1730 nM | 88000 ± 5240 nM | 5100 nM | 224 ± 10.5 nM | 144 to 146 °C | Fc1ccc(-c2cc(OCCCn3ccnc3)c3cc(Br)ccc3n2)cc1 [16c, 4-(3-(1H-imidazol-1-yl)propoxy)-6-bromo-2-(4-fluorophenyl)quinoline] | 12.25% |  |  | 20.11% | 18.14% | 8.67% | 4.36% |
| 13000 ± 3690 nM | 2860 nM | 1010 nM | 8670 nM | 122 ± 9.4 nM | 2620 nM | 1350 nM | 0 | 2900 nM | 24100 ± 2460 nM | 1250 nM | 77.3 ± 4.37 nM | 210 to 212 °C | COc1ccc(-c2ccc3nc(-c4ccc(Cl)cc4)cc(OCCCn4ccnc4)c3c2)cc1 [20a, 4-(3-(1H-imidazol-1-yl)propoxy)-2-(4-chlorophenyl)-6-(4-methoxyphenyl)quinoline] | 44.98% |  |  | 29.08% | 36.71% | 22.06% | 15.23% |
| 9650 ± 2150 nM | 8910 nM | 1650 nM | 8980 nM | 245 ± 12.3 nM | 8710 nM | 4740 nM | 0 | 4210 nM | 7340 ± 1820 nM | 2300 nM | 63.2 ± 3.25 nM | 173 to 175 °C | COc1ccc(-c2ccc3nc(-c4ccc(Cl)cc4)cc(OCCCN4CCOCC4)c3c2)cc1 [20b, 4-(3-((2-(4-chlorophenyl)-6-(4-methoxyphenyl)quinolin-4-yl)oxy)propyl)morpholine] | 53.15% |  |  | 48.31% | 71.05% | 34.02% | 29.37% |
| 16000 ± 1100 nM | 1880 nM | 1230 nM | 8670 nM | 362 ± 5.26 nM | 1440 nM | 1750 nM | 0 | 9050 nM | 12500 ± 3050 nM | 8970 nM | 91 ± 5.85 nM | 176 to 178 °C | COc1ccc(-c2ccc3nc(-c4ccc(F)cc4)cc(OCCCn4ccnc4)c3c2)cc1 [20c, 4-(3-(1H-imidazol-1-yl)propoxy)-2-(4-fluorophenyl)-6-(4-methoxyphenyl)quinoline] | 41.34% |  |  | 32.11% | 38.64% | 22.08% | 76.82% |
| 65300 ± 5360 nM | 41.2 nM | 1770 nM | 1780 nM | 147 ± 8.37 nM | 133 nM | 712 nM | 0 | 251 nM | 29500 ± 4150 nM | 294 nM | 125 ± 3.15 nM | 168 to 170 °C | COc1ccc(-c2ccc3nc(-c4ccc(F)cc4)cc(OCCCN4CCOCC4)c3c2)cc1 [20d, 4-(3-((2-(4-fluorophenyl)-6-(4-methoxyphenyl)quinolin-4-yl)oxy)propyl)morpholine] | 24.65% |  |  | 27.05% | 36.91% | 11.97% | 15.34% |
| 4460 ± 650 nM | 3010 nM | 98.8 nM | 271 nM | 33.7 ± 1.02 nM | 216 nM | 720 nM | 0 | 138 nM | 4750 ± 1020 nM | 243 nM | 25.4 ± 3.48 nM | 130 to 132 °C | Clc1ccc(-c2cc(OCCCn3ccnc3)c3cc(-c4ccco4)ccc3n2)cc1 [20e, 4-(3-(1H-imidazol-1-yl)propoxy)-2-(4-chlorophenyl)-6-(furan-2-yl)quinoline] | 90.65% |  |  | 56.29% | 89.64% | 65.73% | 73.61% |
